Measurements reported in patent US5514668A (priority 1989, dated 1996).
Entries after “also recorded” stand apart in the source; their conditions may differ.

What was measured:
mice = experiment: Toxicity on intravenous injection in mice
Method: The content of free crown ether compound in this product was not analysed.
(§1) The product A was at a concentration of 1% injected intraveneously in mice which each received a dose of 0.4 ml corresponding to 32×10^-4 g crown ether.
The product B was tested similarily but at a concentration of 10%. The dose was here 0.4 ml corresponding to 6.0×10^-3 g crown ether compound. The content of free crown ether compound in this dose amounted to 1.2×10^-4 g.
Two series of comparison tests were also made with the crown ether monomer.
In the first test benzo-18-crown-6 was injected as aqueous solution having a concentration of 0.8% at a dose of 0.4 ml per animal, corresponding to 32×10^-4 g crown ether.
In the ether comparison test benzo-18-crown-6 was used at a concentration of 0.08%. Also here the dose was 0.4 ml corresponding to 3.2×10^-4 g crown ether.

Coccidia [1] = settings: tissue culture; J. Med. Chem. 1983, 26, 590-592; cited from earlier work
Coccidia [2] = settings: poultry, admixed in the fodder; cited from earlier work
[3] = Elimination in urine of mice (UV analysis); format: in vivo; settings: i.v., 1% solution, 0.4 ml
Method: as §1

[4] = test system: foot- and -mouth disease virus, type A; settings: mouse, in vivo
[5] = test system: foot-and-mouth desease virus, type A, Holland; design: species or system Holland; Guinea pigs; settings: guinea pig, in vivo, sc
[6] = test system: foot-and-mouth desease virus, type C, Turup; design: species or system Turup; Guinea pigs; settings: guinea pig, in vivo
[7] = Complexing capability, diffusion test using a membrane cell; format: binding; settings: aqueous, alcohol containing solution; relative to free crown ether
[8] = Elimination of Cs^137 from blood of mice into urine; format: in vivo
Method: Tests were performed at Fors.o slashed.gsstation Ris.o slashed., Department of Health, Roskilde, Denmark, to investigate the ability of the dextran-crown ether compounds to remove radioactive cesium, Cs^137, from the blood of mice.
Three tests were run, each using five mice.
As basis solution for use as injection liquid or for use as basis for the preparation of such, an aqueous 0,9% sodium chloride solution was used containing Cs^137 in an amount corresponding to 3000 Bq/ml.
In each test the mice were kept in a cage, the bottom of which was a net below which a funnel was arranged for collecting the urine of the mice. After each collection of urine the bottom was flushed with water, and urine plus flushing water were collected and diluted with water to 20 ml before the radioactivity were determined by means of a Geiger counting apparatus.
By this test each mouse was injected with 0,1 ml af the basis solution and thus received 300 Bq Cs^137. The time for this injection, below designated to, was 11:30 .
After one hour each mouse was injected with 0,4 ml of a 6 w/v-% aqueous solution of the dextran-O-carbonylbenzo-18-crown-6-product produced according to Example 1, corresponding to 24 mg of this product per mouse.
Collection of urine with subsequent determination of radioactivity was initiated one hour and […], corresponding to 1.35 hours after to and was continued as it appears from Table I below.
47.81 hours after to a further injection of 0.5 ml of the 6%'s dextran-crown ether-solution was made on each mouse and the collection of urine and determination of radioactivity therein were continued.
At this test the injection solution was a mixture of 2 ml of the above mentioned Cs^137 -containing solution and 8 ml of the dextran-crown ether solution used in Test I.
Each mouse was injected with 0,5 ml of the mixture and thus received 300 Bq Cs^137 and 24 mg dextran-crown ether. Collection of urine and further crown ether injection (0,5 ml 6% solution) was made as in Test 1 as it appears from Table II below.
By this comparison test the injection solution was a mixture of 2 ml of the above mentioned basis solution containing 3000 Bq/ml Cs^137 and 8 ml aqueous 0,9% by weight NaCl-solution. Each mouse was injected using […] of the mixture and thus received 300 Bq Cs^137.

[9] = Complexing capability, cesium binding in dialysis hose
Method: The resulting solution was transferred to a hose for dialysis having a pore radius of approximately 1.5 nm.
After 12 hours samples taken from the liquid inside the dialysis hose and from the liquid outside the hose in the graduated glass, resp., were measured by means of a gamma counter operating at 0.66 MeV, to determine the ratio of the Cs concentration inside the dialysis hose to the Cs concentration outside the hose. On the basis of these determinations the corresponding amounts of Cs in the two liquids were calculated.

[10] = 0.08% solution, 0.4 ml, 3.2×10^-4 g crown ether

For `c1ccc2c(c1)OCCOCCOCCOCCOCCO2` [benzo-18-crown-6], the “duration of heavy convulsions” value (mice; [10]) was “approximately 15 minutes”, the symptoms and survival (mice; [10]) was “heavy convulsions appeared; also recorded: the animals survived” and the “reaction compared with product (B)” value (mice; 3.2×10^-4 g pure compound versus product (B) containing 1.2×10^-4 g unbound) was “significantly heavier reaction”. For the same compound, the death of animals (mice; aqueous solution 0.8%, 0.4 ml, 32×10^-4 g crown ether) was “The animals died immediately before the injection was completed”.

For `c1ccc2c(c1)OCCOCCOCCOCCOc1ccccc1OCCOCCOCCOCCO2` [dibenzo-30-crown-10], the anti-coccidial activity (Coccidia [1]) is listed as “have an anti-coccocidal activity in tissue culture tests” and the “in vivo anti-coccidial effect” value (Coccidia [2]) is listed as “no in vivo effect was demonstrated”.

With “T40-Dextran-O-carbonylbenzo-18-crown-6 [product A]” the “time after which compound was excreted substantially completely in urine” value [3] was 3 to 5 h and the signs of illness (mice; i.v., 1% solution, 0.4 ml) was “did not show any sign of illness”.

In the case of “T40-Dextran-O-carbonylbenzo-18-crown-6 [product B]”, the symptoms after injection (mice; i.v., 10% solution, 0.4 ml) is reported as “subdued after having received this dose and had bristled furs; also recorded: thereafter they did not shown any symptoms” and the “duration of being subdued with bristled furs” value (mice; i.v., 10% solution, 0.4 ml, several animals) is reported as “approximately 30 minutes”.

In the case of “dextran-O-carbonylbenzo-18-crown-6 [dextran-crown ether]”, the “effect on viral activity” value [4] is reported as “impedes the viral activity”, the “significance of titre difference versus virus control” value [4] is reported as “not significant” and the “reduction of the number of blisters” value [5] is reported as “a reduction of the number of blisters was obtained”. The antiviral activity [6] was “exhibited an antiviral activity at all three days”, the “capability of complexing metals, such as sodium ions” value [7] was “has been maintained” and the “radioactivity in urine + flushing water” value ([8]; Test 1, 1.35 hours after to, 24 mg per mouse given one hour after Cs^137) was 6978 counts. For the same compound, the “radioactivity in urine + flushing water” value ([8]; Test 1, 4.63 hours after new to (second injection)) was 3533 counts, the “radioactivity in urine + flushing water” value ([8]; Test 1, 4.83 hours after to) was 3684 counts and the “radioactivity in urine + flushing water” value ([8]; Test 1, 8.67 hours after new to (second injection)) was 2937 counts. The “radioactivity in urine + flushing water” value ([8]; Test 1, 8.88 hours after to) was 8280 counts, the “radioactivity in urine + flushing water” value ([8]; Test 1, 20.07 hours after to) was 17001 counts and the “radioactivity in urine + flushing water” value ([8]; Test 1, 22.28 hours after new to (second injection)) was 6391 counts. The “radioactivity in urine + flushing water” value ([8]; Test 1, 44.92 hours after to) was 17368 counts, the “radioactivity in urine + flushing water” value ([8]; Test 1, 47.78 hours after to) was 2213 counts and the “Counts, total (accumulated)” value ([8]; Test 1, time 1.35) was 6978 counts. The “Counts, total (accumulated)” value ([8]; Test 1, time 4.83) was 10662 counts, the “Counts, total (accumulated)” value ([8]; Test 1, time 20.07) was 35943 counts and the “Counts, total (accumulated)” value ([8]; Test 1, time 44.92) was 53311 counts. For the same compound, the “Counts, total (accumulated)” value ([8]; Test 1, time 47.78) was 55524 counts, the “Counts, total (accumulated)” value ([8]; Test 1, time 52.41) was 59057 counts and the “Counts, total (accumulated)” value ([8]; Test 1, time 56.45) was 61994 counts. For the same compound, the “Counts, total (accumulated)” value ([8]; Test 1, time 67.06) was 68385 counts, the “radioactivity in urine + flushing water” value ([8]; Test 2, 0.87 hours after to, 24 mg per mouse injected in mixture with Cs^137) was 4498 counts and the “radioactivity in urine + flushing water” value ([8]; Test 2, 4.33 hours after new to (second injection)) was 3659 counts. For the same compound, the “radioactivity in urine + flushing water” value ([8]; Test 2, 4.62 hours after to) was 11634 counts, the “radioactivity in urine + flushing water” value ([8]; Test 2, 8.40 hours after new to (second injection)) was 3222 counts and the “radioactivity in urine + flushing water” value ([8]; Test 2, 8.65 hours after to) was 8566 counts. For the same compound, the “radioactivity in urine + flushing water” value ([8]; Test 2, 19.82 hours after to) was 16805 counts, the “radioactivity in urine + flushing water” value ([8]; Test 2, 22.08 hours after new to (second injection)) was 4966 counts and the “radioactivity in urine + flushing water” value ([8]; Test 2, 44.65 hours after to) was 12901 counts. For the same compound, the “radioactivity in urine + flushing water” value ([8]; Test 2, 47.53 hours after to) was 2728 counts, the “Counts, total (accumulated)” value ([8]; Test 2, time 0.87) was 4498 counts and the “Counts, total (accumulated)” value ([8]; Test 2, time 8.65) was 24698 counts. The “Counts, total (accumulated)” value ([8]; Test 2, time 19.82) was 41503 counts, the “Counts, total (accumulated)” value ([8]; Test 2, time 44.65) was 54411 counts and the “Counts, total (accumulated)” value ([8]; Test 2, time 47.53) was 57139 counts. For the same compound, the “Counts, total (accumulated)” value ([8]; Test 2, time 51.86) was 60798 counts, the “Counts, total (accumulated)” value ([8]; Test 2, time 55.93) was 64020 counts and the “Counts, total (accumulated)” value ([8]; Test 2, time 69.53) was 68986 counts. For the same compound, the “speed of excretion of Cs^137 after the second injection” value ([8]; approximately 8 hours after second injection) was “somewhat increased speed of excretion”, the “more radioactive Cs excreted than in comparison Test 3” value ([8]; approximately 70 hours, Tests 1 and 2 versus Test 3) was “approximately 17%” and the “speed of elimination of Cs^137” value ([8]; first 5-8 hours after the first injection) was “significantly increased”.

For dextran-hydroxyethylbenzo-18-crown-6, the “capability of catching and binding cesium ions” value [9] was “substantial capability of catching and binding cesium ions”, the “Cs in liquid inside the hose” value ([9]; after 12 h) was 658 µg and the “Cs in liquid outside the hose” value ([9]; after 12 h) was 1362 µg. For the same compound, the “Cs conc. inside hose/Cs conc. outside hose” value ([9]; after 12 h, gamma counter) was 1.2, the “Cs conc. inside hose/Cs conc. outside hose” value ([9]; initially) was 1 and the “Cs in liquid inside the hose” value ([9]; initially) was 520 µg. For the same compound, the “Cs in liquid outside the hose” value ([9]; initially) was 1500 µg.
